Source: paper PMC4979471 (Cell Death Discovery, 2015)
Where two headings read alike, the source gives them in different places.

How the values were obtained:
Test in all cases: Kinase selectivity, P33-radiolabeled assay
Assay type in all cases: biochemical
Conditions in all cases: 10 μM ATP
[1] = biological target: T1, DCAMKL2 (Homo sapiens, UniProt Q8N568)
T1 construct: purchased Reaction Biology Corp
T1 sequence (Q8N568 1-766): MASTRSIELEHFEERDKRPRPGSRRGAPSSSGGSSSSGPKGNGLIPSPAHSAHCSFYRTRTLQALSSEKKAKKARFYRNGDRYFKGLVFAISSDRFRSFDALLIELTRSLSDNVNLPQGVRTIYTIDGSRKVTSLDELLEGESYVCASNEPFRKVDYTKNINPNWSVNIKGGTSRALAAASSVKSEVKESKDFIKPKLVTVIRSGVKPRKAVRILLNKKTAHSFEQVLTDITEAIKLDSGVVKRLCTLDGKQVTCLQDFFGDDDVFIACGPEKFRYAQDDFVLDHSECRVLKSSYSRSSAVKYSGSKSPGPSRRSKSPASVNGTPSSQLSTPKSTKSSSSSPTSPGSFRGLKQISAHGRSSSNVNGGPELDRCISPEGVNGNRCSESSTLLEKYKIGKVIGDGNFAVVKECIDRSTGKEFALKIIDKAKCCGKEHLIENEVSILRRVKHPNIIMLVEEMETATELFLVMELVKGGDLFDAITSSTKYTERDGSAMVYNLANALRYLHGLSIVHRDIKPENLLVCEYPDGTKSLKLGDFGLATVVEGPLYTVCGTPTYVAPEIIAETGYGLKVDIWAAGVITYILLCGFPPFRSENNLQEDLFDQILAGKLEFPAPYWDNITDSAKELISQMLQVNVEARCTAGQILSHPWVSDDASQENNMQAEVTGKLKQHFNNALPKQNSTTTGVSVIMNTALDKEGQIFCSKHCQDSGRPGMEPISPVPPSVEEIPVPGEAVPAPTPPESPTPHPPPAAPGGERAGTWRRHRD
In short: (§1)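 Duplicate single-concentration testing used 10 μM compound. The ATP concentration was also 10 μM.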

[2] = biological target: T2, EPHA1 (Homo sapiens, UniProt P21709)
T2 construct: purchased Reaction Biology Corp
T2 sequence (P21709 26-976): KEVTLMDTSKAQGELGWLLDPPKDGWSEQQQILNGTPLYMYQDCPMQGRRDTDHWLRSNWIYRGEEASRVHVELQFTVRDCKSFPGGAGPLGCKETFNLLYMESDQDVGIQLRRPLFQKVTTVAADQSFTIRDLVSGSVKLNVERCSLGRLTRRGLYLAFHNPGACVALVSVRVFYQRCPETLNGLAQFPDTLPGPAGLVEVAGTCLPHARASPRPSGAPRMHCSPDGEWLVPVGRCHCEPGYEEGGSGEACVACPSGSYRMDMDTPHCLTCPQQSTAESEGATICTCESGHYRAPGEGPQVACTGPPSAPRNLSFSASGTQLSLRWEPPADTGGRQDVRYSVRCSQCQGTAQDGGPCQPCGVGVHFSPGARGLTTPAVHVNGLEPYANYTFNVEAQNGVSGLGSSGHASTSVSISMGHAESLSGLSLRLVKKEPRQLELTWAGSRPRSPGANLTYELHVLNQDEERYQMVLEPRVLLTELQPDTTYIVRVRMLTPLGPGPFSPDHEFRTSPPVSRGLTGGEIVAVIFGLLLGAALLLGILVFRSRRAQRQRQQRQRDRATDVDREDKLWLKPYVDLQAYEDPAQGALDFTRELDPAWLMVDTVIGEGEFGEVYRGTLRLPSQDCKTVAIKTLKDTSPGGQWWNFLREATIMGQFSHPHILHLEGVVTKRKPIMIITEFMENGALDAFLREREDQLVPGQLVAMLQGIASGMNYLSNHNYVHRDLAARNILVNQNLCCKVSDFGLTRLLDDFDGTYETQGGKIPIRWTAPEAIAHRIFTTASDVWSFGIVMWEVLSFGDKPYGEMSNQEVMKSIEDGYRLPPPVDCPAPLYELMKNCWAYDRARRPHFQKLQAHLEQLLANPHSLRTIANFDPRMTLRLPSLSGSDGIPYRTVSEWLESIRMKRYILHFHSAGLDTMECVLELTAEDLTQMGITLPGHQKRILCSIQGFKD
In short: as §1

[3] = biological target: T3, Haspin (Homo sapiens, UniProt Q8TF76)
T3 construct: purchased Reaction Biology Corp
T3 sequence (Q8TF76 1-798): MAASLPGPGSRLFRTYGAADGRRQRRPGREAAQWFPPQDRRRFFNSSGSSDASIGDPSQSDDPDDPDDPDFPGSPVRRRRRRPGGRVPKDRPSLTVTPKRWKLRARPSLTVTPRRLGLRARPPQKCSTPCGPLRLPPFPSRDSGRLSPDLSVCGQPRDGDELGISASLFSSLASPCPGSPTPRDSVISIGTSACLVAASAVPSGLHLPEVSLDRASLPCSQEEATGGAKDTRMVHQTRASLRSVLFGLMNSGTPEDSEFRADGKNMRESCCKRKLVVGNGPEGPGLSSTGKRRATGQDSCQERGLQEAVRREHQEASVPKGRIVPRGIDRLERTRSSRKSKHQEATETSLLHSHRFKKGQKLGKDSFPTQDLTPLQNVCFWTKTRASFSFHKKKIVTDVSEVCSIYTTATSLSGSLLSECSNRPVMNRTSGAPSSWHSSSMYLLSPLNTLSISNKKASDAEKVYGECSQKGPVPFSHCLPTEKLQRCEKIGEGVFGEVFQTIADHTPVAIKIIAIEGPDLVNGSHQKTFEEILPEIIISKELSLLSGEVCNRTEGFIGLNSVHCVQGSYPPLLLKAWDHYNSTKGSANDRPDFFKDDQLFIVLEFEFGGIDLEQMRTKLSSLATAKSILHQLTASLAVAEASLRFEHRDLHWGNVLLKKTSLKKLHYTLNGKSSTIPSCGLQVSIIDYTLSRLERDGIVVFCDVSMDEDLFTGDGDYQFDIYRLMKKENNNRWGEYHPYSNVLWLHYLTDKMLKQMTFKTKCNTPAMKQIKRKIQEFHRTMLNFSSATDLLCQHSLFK
In short: as §1

[4] = biological target: T4, MLK2/MAP3K10 (Homo sapiens, UniProt Q02779)
T4 construct: purchased Reaction Biology Corp
In short: as §1

[5] = biological target: T5, MSK2/RPS6KA4 (Homo sapiens, UniProt O75676)
T5 construct: purchased Reaction Biology Corp
In short: as §1

[6] = biological target: T6, PAK2 (Homo sapiens, UniProt Q13177)
T6 construct: purchased Reaction Biology Corp
In short: as §1

[7] = read-out: % Enzyme Activity (relative to DMSO controls) AVG
[8] = read-out: % Enzyme Activity (relative to DMSO controls) Data 1
[9] = read-out: % Enzyme Activity (relative to DMSO controls) Data 2

T6 sequence (Q13177 whole entry): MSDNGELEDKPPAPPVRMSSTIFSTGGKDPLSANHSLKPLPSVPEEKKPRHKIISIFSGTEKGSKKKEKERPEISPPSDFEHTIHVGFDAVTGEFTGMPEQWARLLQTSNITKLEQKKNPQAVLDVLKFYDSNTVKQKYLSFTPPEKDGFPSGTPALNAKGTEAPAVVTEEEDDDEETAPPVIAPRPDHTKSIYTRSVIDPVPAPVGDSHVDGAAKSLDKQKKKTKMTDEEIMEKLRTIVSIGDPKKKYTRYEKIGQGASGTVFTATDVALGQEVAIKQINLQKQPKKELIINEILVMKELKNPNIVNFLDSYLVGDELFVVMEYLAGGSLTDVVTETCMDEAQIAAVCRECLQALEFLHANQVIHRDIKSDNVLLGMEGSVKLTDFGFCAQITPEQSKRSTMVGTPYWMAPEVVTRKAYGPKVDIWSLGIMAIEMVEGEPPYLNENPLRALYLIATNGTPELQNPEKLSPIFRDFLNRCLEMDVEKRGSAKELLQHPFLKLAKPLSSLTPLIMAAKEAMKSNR
T4 sequence (Q02779 whole entry): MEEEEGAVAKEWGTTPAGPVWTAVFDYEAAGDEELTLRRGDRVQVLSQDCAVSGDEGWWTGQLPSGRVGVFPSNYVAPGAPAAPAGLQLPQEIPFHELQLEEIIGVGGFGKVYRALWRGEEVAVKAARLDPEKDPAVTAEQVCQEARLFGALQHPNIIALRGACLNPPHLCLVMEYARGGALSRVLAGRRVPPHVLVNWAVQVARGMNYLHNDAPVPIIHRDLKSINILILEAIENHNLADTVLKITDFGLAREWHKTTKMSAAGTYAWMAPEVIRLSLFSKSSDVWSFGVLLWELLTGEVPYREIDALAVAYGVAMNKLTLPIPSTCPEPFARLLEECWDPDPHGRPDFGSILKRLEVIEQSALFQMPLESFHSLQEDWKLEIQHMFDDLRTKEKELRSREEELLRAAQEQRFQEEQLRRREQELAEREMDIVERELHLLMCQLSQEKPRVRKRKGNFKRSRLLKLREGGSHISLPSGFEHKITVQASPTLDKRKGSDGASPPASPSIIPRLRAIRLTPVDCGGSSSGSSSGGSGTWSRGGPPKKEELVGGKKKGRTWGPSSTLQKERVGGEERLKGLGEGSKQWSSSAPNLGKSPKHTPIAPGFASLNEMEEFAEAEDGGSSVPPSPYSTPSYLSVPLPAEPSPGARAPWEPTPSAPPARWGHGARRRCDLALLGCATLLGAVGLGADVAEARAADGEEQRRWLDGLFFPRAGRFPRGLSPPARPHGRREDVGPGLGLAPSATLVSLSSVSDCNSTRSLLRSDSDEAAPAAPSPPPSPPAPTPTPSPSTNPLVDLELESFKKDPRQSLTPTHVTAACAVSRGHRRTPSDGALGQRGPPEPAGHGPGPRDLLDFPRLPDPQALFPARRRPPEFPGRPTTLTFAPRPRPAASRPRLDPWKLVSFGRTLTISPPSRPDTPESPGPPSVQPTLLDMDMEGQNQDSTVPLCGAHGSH
T5 sequence (O75676 whole entry): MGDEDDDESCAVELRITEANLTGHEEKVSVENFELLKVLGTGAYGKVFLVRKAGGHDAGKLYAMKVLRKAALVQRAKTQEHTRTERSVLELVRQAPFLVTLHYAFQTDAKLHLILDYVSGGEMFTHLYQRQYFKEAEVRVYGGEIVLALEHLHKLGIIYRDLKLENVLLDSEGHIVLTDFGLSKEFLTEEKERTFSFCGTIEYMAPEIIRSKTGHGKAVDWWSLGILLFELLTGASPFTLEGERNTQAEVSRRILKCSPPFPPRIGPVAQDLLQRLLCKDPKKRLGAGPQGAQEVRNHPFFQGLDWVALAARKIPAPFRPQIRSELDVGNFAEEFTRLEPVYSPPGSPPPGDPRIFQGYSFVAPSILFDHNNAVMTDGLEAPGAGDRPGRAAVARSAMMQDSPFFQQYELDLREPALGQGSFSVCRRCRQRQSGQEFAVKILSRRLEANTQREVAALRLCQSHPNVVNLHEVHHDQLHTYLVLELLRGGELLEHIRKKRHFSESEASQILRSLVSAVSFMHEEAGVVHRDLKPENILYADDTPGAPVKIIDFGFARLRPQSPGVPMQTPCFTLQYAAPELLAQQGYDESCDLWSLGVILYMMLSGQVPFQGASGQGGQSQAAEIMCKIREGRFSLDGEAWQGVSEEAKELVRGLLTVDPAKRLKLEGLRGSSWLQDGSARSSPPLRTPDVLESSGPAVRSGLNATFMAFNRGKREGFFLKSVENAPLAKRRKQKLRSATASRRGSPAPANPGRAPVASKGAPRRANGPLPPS

CC(C)(C)C(=O)N1N=CC[C@H]1c1ccccc1 [GSK′963]
remaining activity at 10 µM [1, 7]: 101%
remaining activity at 10 µM [1, 8]: 100%
remaining activity at 10 µM [1, 9]: 102%
remaining activity at 10 µM [2, 7]: 106%
remaining activity at 10 µM [2, 8]: 107%
remaining activity at 10 µM [2, 9]: 106%
remaining activity at 10 µM [3, 7]: 96.7%
remaining activity at 10 µM [3, 8]: 97.3%
remaining activity at 10 µM [3, 9]: 96.2%
remaining activity at 10 µM [4, 7]: 99.4%
remaining activity at 10 µM [4, 8]: 98.6%
remaining activity at 10 µM [4, 9]: 100%
remaining activity at 10 µM [5, 7]: 104%
remaining activity at 10 µM [5, 8]: 104%
remaining activity at 10 µM [5, 9]: 103%
remaining activity at 10 µM [6, 7]: 95.8%
remaining activity at 10 µM [6, 8]: 94.9%
remaining activity at 10 µM [6, 9]: 96.8%
